Measurements published in ChEMBL document CHEMBL1938230, “6-Position optimization of tricyclic 4-quinolone-based inhibitors of glycogen synthase kinase-3β: discovery of nitrile derivatives with picomolar potency” (Bioorg Med Chem Lett, 2012).

Tests used:
[1] = molecular target: T1, Mitogen-activated protein kinase kinase kinase 5 (Homo sapiens) (UniProt Q99683); assay: Inhibition of human MAP3K5 in HL-60 cells lysate assessed as reduction of labeling of acyl-phosphate ATP probe at 100 nM; type: cell-free
T1 sequence (whole entry): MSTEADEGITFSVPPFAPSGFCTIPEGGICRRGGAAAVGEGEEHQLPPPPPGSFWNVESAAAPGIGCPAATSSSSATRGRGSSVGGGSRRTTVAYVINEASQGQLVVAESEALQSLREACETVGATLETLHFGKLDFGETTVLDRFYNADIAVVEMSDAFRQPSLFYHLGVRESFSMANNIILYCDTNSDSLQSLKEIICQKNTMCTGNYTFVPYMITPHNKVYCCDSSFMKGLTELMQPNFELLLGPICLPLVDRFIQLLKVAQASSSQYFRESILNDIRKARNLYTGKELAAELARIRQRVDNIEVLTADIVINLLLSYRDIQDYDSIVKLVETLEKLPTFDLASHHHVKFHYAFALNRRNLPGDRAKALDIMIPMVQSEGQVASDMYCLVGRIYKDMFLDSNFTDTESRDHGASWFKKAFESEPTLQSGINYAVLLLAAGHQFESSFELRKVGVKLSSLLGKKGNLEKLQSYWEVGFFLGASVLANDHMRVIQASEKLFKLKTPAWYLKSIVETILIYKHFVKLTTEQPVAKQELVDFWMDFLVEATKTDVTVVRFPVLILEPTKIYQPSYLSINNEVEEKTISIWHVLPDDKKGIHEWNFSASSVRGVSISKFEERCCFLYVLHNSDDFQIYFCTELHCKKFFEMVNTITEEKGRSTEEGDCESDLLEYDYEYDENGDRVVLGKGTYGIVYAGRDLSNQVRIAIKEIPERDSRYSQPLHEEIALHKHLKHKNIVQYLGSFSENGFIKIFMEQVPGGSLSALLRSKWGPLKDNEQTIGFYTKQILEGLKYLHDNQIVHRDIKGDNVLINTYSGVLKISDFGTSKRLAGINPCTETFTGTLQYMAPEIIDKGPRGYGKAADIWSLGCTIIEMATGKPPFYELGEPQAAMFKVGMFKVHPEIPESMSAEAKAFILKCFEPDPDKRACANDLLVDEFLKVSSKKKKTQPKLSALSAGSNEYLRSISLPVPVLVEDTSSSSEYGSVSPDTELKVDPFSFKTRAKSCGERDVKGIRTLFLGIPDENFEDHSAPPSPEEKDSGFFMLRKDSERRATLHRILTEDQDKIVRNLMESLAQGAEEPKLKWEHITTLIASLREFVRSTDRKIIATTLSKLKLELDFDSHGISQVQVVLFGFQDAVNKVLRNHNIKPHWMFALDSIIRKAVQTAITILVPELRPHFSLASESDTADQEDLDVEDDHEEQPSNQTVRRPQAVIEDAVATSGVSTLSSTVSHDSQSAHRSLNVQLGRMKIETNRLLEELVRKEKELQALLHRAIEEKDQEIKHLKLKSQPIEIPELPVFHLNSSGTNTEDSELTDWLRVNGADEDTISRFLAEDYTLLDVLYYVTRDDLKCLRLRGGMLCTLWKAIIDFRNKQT

[2] = molecular target: T2, Interleukin-1 receptor-associated kinase 4 (Homo sapiens) (UniProt Q9NWZ3); assay: Inhibition of human IRAK4 in HL-60 cells lysate assessed as reduction of labeling of acyl-phosphate ATP probe at 100 nM; type: cell-free
T2 sequence (whole entry): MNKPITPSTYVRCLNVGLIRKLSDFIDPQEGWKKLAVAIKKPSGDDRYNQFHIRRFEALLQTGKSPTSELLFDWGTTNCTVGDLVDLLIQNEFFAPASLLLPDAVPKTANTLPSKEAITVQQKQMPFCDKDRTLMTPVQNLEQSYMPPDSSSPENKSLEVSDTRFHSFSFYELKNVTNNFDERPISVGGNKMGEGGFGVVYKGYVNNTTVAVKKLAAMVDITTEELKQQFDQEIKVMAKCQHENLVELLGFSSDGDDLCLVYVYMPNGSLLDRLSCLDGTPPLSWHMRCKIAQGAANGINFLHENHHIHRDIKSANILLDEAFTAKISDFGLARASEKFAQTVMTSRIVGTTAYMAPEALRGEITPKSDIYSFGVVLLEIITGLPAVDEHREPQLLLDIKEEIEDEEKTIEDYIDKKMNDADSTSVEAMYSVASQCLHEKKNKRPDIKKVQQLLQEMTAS

[3] = molecular target: T3, Aurora kinase A (Homo sapiens) (UniProt O14965); assay: Inhibition of human AurA in HL-60 cells lysate assessed as reduction of labeling of acyl-phosphate ATP probe at 100 nM; type: cell-free
T3 sequence (whole entry): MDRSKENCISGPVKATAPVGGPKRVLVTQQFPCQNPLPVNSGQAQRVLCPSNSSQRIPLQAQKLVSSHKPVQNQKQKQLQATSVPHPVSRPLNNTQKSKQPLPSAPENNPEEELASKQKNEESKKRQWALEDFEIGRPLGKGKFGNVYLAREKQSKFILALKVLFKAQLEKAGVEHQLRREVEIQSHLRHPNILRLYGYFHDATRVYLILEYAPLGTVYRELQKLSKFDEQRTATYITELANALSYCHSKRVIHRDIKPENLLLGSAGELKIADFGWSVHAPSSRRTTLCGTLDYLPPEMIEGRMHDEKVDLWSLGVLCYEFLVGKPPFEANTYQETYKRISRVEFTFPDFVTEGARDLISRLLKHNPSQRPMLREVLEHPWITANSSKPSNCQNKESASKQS

[4] = molecular target: Serine/threonine-protein kinase 16 (Homo sapiens) (UniProt O75716); assay: Inhibition of human MPSK1 in HL-60 cells lysate assessed as reduction of labeling of acyl-phosphate ATP probe at 100 nM; type: cell-free
Chain of Serine/threonine-protein kinase 16 (Homo sapiens) (O75716 whole entry): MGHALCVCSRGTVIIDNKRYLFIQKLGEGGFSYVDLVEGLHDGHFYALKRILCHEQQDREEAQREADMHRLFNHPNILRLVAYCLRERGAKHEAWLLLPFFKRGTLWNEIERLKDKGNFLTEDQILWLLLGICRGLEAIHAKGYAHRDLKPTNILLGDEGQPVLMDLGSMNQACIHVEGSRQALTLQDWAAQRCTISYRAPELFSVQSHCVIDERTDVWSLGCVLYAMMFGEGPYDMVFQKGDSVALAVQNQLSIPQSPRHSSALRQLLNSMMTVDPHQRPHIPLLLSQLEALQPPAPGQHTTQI

[5] = molecular target: Serine/threonine-protein kinase Nek7 (Homo sapiens) (UniProt Q8TDX7); assay: Inhibition of human NEK7 in HL-60 cells lysate assessed as reduction of labeling of acyl-phosphate ATP probe at 100 nM; type: cell-free
Chain of Serine/threonine-protein kinase Nek7 (Homo sapiens) (Q8TDX7 whole entry, looked up): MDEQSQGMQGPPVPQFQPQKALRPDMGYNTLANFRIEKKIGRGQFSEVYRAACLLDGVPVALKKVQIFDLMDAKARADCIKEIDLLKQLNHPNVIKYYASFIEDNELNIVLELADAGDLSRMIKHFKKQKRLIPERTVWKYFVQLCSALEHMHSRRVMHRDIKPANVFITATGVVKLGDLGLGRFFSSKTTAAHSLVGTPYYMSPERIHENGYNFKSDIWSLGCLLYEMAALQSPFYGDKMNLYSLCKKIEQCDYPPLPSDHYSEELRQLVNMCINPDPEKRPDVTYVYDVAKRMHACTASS

HL-60 = assay: Inhibition of human PITSLRE in HL-60 cells lysate assessed as reduction of labeling of acyl-phosphate ATP probe at 100 nM
[6] = molecular target: Phosphatidylinositol 4-kinase beta (Homo sapiens) (UniProt Q9UBF8); assay: Inhibition of human PI4KB in HL-60 cells lysate assessed as reduction of labeling of acyl-phosphate ATP probe at 100 nM; type: cell-free
Chain of Phosphatidylinositol 4-kinase beta (Homo sapiens) (Q9UBF8 2-816 limits assumed): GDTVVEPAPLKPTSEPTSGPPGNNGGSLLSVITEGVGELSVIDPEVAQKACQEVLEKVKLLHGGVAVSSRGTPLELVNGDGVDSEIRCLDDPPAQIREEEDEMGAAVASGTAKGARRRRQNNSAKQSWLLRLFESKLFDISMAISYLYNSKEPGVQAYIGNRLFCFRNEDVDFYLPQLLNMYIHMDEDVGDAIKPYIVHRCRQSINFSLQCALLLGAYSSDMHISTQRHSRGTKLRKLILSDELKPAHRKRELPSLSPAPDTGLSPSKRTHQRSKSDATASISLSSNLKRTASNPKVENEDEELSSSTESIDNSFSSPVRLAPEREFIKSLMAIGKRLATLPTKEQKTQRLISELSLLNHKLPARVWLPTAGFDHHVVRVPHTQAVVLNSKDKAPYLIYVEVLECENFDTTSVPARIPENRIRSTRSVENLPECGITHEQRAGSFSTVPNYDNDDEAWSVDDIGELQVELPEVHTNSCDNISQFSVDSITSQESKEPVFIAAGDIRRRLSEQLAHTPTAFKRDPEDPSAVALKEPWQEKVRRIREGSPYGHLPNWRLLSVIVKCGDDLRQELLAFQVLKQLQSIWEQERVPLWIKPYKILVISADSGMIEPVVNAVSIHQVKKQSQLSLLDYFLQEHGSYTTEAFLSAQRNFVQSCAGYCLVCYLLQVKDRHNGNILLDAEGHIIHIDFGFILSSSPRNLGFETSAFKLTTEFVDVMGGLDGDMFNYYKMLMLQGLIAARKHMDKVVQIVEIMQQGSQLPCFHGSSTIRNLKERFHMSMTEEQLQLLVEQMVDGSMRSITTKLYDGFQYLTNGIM

C[C@H]1COc2c(NCCCn3cccn3)c(F)c(N)c3c(=O)c(C#N)cn1c23
< 35%: inhibition [1] | inhibition [2] | inhibition [3] | inhibition [4] | inhibition [5] | inhibition at 0.1 µM (HL-60) | inhibition [6]

C[C@H]1COc2c(NCCCc3ccccn3)c(F)c(N)c3c(=O)c(C(=O)O)cn1c23
< 35%: inhibition [1] | inhibition [2] | inhibition [3] | inhibition [4] | inhibition [5] | inhibition at 0.1 µM (HL-60) | inhibition [6]

C[C@H]1COc2c(NCCCn3cccn3)c(F)c(N)c3c(=O)c(C(=O)O)cn1c23
< 35%: inhibition [1] | inhibition [2] | inhibition [3] | inhibition [4] | inhibition [5] | inhibition at 0.1 µM (HL-60) | inhibition [6]

C[C@H]1COc2c(NCCCc3ccccn3)c(F)c(N)c3c(=O)c(C#N)cn1c23
< 35%: inhibition [1] | inhibition [2] | inhibition [3] | inhibition [4] | inhibition [5] | inhibition at 0.1 µM (HL-60) | inhibition [6]
